Test [1] has as its target T1, Endoribonuclease toxin MazF (Escherichia coli K-12, UniProt P0AE70).
T1 sequence (P0AE70 whole entry): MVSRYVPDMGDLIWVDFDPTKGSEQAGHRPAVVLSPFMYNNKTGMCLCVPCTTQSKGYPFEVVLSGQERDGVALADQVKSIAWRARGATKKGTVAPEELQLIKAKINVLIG
Kind of test: substrate-only fluorescence increase artefacts – biochemical, single-stranded RNase substrate, counter-screen for MazEF activator project, dose response (AID 588502). The format is functional. In general terms: A counterscreen serves to expose hits that act by an unwanted route or on another target.

Test [2] concerns the target T1, Endoribonuclease toxin MazF. Put plainly: activation of MazEF endoribonuclease cleavage – biochemical, fluorescence, single-stranded RNA substrate, uHTS hits, dose response (AID 588481). The format is functional.
For a further test, the target named is Phospholipase A2 (Homo sapiens, UniProt P04054). The test is classed as functional.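 Also: confirmatory dose-response counterscreen on phospholipase A2, testing hits that came from an ultra-high-throughput screen for ATG4B inhibitors.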
Phospholipase A2, sequence (P04054 whole entry): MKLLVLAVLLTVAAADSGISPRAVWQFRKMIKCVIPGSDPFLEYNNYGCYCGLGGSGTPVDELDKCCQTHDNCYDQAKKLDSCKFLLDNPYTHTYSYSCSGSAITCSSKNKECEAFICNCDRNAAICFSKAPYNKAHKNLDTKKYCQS
The target in the next test is T2, Cysteine protease ATG4B (Homo sapiens, UniProt Q9Y4P1).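 Also: Fluorescence-based dose-response confirmation assay measuring inhibition of ATG4B activity.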
T2 sequence (Q9Y4P1 whole entry): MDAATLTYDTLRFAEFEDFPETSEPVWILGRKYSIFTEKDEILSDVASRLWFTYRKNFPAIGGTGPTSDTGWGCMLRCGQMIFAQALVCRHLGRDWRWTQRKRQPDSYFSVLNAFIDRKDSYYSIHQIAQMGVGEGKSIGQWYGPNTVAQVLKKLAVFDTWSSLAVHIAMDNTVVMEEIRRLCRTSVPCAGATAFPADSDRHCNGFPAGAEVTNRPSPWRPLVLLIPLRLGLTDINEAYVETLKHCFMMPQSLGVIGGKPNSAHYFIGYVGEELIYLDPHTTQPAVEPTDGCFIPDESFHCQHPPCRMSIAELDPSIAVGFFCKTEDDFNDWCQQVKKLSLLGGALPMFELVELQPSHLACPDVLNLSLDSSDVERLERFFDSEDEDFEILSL
The test is classed as functional.

For test [3], the target named is T3, Type-1 angiotensin II receptor (Homo sapiens, UniProt P30556).
T3 sequence (P30556 whole entry): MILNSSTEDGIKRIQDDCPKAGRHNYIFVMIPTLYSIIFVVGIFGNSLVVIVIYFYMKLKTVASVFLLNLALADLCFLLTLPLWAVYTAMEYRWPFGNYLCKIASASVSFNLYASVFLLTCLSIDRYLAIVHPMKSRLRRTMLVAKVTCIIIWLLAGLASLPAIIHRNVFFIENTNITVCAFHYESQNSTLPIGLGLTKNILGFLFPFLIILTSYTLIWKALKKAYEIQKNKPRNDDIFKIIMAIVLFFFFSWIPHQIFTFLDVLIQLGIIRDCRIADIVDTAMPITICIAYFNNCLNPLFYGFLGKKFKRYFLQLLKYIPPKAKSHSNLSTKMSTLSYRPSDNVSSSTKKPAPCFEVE
Kind of test: antagonism of angiotensin II type 1 receptor – cell-based, uHTS hits, selectivity assay for APJ receptor antagonist project, dose response (AID 463214).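 Also: antagonist potency against angiotensin II stimulated AT1 response.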 The format is functional.

A further test deals with Beta-galactosidase (Escherichia coli, UniProt Q8VNN2). Kind of test: PubChem AID 485352. The test is classed as functional.
Beta-galactosidase, sequence (Q8VNN2 whole entry): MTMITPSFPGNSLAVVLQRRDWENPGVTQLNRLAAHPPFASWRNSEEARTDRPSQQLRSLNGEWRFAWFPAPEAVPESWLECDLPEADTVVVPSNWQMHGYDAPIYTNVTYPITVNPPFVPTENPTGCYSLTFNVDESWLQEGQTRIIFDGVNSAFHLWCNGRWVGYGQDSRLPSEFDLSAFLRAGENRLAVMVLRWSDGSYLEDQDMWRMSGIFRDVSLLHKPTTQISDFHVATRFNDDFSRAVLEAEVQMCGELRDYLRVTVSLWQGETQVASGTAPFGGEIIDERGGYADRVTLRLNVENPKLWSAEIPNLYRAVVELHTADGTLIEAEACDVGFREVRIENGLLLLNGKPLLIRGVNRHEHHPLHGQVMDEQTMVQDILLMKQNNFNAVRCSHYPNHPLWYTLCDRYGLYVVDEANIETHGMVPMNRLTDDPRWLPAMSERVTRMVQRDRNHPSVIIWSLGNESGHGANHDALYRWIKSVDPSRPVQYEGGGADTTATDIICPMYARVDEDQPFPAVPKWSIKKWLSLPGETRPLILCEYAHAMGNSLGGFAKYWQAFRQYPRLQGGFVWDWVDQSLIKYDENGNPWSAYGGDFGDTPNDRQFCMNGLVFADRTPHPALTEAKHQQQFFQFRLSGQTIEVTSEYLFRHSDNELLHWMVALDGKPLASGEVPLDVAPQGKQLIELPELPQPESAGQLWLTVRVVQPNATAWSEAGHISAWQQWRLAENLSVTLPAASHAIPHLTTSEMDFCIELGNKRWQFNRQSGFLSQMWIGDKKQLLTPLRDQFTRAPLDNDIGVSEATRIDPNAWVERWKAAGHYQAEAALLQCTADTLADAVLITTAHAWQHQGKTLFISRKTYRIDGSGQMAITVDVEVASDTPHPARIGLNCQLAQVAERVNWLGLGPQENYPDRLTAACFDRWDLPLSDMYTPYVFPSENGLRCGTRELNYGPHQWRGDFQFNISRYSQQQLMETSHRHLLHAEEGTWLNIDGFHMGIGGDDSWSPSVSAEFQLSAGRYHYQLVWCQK
A further test deals with HEK293. Kind of test: cells. The format is functional, cell-based. The note with it: Homo sapiens.
The target in test [4] is T4, Nuclear receptor subfamily 0 group B member 1 (Homo sapiens, UniProt P51843).
T4 sequence (P51843 whole entry): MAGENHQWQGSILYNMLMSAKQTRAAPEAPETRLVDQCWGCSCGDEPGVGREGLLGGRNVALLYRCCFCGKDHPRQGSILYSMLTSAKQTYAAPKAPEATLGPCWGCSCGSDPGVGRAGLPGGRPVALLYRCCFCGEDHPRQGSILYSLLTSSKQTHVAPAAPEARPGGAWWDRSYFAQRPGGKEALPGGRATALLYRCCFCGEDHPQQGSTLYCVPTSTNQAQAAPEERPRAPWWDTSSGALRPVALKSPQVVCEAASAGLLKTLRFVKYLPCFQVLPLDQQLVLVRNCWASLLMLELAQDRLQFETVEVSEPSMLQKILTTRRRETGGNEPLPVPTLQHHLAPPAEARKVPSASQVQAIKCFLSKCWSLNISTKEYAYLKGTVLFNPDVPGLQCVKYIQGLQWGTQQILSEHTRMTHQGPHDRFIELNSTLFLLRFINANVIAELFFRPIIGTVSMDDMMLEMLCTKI
Kind of test: Luminescence-based cell-based high throughput dose response assay for inhibitors of the orphan nuclear receptor subfamily 0, group B, member 1 (DAX1; NR0B1). [Related pubchem assays (depositor defined):AID504766, AID504790]. The format is functional.

The target in another test is Cytochrome P450 3A4 (Homo sapiens, UniProt P08684).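 Also: CYP3A4 tested as one member of a cytochrome P450 panel screen.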
Cytochrome P450 3A4, sequence (P08684 whole entry): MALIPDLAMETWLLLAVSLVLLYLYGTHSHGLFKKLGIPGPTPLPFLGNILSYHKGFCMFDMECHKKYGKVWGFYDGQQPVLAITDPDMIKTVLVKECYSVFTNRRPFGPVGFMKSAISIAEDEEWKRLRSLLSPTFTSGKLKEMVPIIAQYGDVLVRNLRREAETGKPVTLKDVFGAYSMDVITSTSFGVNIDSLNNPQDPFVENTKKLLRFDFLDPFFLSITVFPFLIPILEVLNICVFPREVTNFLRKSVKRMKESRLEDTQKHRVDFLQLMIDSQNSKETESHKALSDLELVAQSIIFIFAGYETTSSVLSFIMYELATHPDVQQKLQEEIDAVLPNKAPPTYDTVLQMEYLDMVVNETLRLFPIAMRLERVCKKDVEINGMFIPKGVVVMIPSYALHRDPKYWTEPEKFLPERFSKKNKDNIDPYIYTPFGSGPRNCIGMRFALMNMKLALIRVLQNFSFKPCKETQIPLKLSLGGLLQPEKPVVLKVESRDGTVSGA
A further test concerns the target Cytochrome P450 2D6 (Homo sapiens, UniProt P10635).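 Also: CYP2D6 member of a cytochrome P450 panel assay.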
In test [5] the target is T5, Sentrin-specific protease 8 (Homo sapiens, UniProt Q96LD8).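 Also: luminescence read-out of SENP8 inhibition, dose-response confirmation following an ultra-high-throughput screen.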
T5 sequence (Q96LD8 whole entry): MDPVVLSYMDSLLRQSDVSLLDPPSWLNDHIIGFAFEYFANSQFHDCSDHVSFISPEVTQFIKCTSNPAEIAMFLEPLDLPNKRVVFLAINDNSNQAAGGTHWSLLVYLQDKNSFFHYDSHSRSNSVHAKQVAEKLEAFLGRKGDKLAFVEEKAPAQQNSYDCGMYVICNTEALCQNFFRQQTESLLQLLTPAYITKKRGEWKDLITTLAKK
The format is functional.

The target in test [6] is T6, Sentrin-specific protease 6 (Homo sapiens, UniProt Q9GZR1).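 Also: Luminescence-based dose-response confirmatory assay of SENP6 inhibition, following up an ultra-high-throughput screen.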
T6 sequence (Q9GZR1 whole entry): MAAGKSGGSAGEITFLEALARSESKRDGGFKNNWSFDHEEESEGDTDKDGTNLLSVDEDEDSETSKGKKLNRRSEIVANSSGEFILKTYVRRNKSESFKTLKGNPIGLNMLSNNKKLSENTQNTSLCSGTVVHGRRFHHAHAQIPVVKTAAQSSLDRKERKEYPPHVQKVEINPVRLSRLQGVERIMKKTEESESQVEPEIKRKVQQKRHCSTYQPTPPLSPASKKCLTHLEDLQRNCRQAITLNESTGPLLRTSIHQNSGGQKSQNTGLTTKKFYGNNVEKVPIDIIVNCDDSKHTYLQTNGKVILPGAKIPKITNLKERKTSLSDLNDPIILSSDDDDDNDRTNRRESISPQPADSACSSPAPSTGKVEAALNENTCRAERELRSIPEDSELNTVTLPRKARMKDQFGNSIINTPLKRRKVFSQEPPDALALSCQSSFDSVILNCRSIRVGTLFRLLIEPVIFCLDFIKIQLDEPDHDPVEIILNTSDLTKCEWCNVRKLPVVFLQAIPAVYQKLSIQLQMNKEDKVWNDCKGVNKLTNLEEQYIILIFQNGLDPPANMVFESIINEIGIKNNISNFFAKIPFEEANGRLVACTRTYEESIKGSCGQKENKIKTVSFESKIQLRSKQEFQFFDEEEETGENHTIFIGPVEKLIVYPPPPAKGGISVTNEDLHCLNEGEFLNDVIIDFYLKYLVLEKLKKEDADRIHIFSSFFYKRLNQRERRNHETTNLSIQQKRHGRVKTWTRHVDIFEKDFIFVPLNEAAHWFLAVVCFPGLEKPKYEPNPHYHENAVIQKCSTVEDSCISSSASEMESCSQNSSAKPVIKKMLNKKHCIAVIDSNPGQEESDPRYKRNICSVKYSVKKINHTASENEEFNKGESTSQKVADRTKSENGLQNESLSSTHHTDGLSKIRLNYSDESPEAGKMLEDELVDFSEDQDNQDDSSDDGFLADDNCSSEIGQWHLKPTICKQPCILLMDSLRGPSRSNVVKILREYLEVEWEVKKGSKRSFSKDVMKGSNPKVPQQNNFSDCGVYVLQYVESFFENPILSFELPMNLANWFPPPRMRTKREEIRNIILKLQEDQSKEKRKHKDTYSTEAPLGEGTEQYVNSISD
The test is classed as functional.

The target of test [7] is T7, Sentrin-specific protease 7 (Homo sapiens, UniProt Q9BQF6).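 Also: Luminescence-based dose-response confirmation of ultra-high-throughput screening hits, measuring inhibition of SENP7.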
T7 sequence (Q9BQF6 whole entry): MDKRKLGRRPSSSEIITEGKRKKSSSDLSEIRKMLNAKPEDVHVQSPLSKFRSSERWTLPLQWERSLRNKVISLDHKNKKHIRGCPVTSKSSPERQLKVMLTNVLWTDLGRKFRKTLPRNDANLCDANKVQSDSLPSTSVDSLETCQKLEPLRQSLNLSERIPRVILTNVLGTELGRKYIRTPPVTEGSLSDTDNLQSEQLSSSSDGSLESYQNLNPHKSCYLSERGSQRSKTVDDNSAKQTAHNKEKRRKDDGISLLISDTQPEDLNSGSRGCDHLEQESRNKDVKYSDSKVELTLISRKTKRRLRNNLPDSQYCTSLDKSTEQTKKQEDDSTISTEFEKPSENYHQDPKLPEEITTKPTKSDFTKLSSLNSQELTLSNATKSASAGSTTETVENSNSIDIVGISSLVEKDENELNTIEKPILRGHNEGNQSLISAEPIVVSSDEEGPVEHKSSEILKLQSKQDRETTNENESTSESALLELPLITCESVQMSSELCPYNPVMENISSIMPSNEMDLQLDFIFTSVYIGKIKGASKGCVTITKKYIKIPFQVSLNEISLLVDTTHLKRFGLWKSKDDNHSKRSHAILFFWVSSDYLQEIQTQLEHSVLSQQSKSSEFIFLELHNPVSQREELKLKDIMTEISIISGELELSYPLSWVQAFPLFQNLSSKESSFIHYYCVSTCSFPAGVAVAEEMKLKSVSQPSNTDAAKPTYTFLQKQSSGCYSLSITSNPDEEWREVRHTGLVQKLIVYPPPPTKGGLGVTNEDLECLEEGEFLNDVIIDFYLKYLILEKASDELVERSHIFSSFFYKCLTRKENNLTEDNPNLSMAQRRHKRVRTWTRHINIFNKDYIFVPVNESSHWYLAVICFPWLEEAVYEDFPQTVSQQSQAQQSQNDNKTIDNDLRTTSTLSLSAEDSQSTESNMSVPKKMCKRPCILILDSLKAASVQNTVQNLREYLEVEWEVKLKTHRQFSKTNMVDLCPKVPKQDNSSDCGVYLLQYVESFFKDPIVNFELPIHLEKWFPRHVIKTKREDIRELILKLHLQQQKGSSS
The test is classed as functional.

In the next test the target is T8, Caspase-3 (Homo sapiens, UniProt P42574).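 Also: Dose-response selectivity test against caspase-3 for candidate inhibitors of sentrin-specific proteases (SENPs).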
T8 sequence (P42574 whole entry): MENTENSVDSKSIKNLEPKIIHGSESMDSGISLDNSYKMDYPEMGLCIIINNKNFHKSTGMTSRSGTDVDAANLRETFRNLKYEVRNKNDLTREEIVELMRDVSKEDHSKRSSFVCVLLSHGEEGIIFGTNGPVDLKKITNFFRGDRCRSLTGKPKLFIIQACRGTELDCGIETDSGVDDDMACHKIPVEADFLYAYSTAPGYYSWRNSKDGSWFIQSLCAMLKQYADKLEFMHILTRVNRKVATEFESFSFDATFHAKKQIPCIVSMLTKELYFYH
The format is functional.

Another test concerns HeLa. Put plainly: ATP-based viability loss in HeLa cells – cell-based, CellTiter-Glo luminescence, cherry-pick samples, cytotoxicity control for MITF activator project, dose response (AID 540259). The note with it: Homo sapiens. The format is functional. A general note: ATP-based viability assays read luminescence as a measure of living cells.

Our source for the EC50, IC50 and AC50 values is ChEMBL document CHEMBL1201862, “PubChem BioAssay data set” (2004).

As usually defined, the EC50 is the concentration at which the effect is half-maximal. What is called IC50 is the concentration at which inhibition is half-maximal. What is called AC50 is the concentration giving half of the maximal activity seen.

The structures appear in SMILES notation. Activity calls are given as the source filed them.

Cytochrome P450 2D6, sequence (P10635 whole entry): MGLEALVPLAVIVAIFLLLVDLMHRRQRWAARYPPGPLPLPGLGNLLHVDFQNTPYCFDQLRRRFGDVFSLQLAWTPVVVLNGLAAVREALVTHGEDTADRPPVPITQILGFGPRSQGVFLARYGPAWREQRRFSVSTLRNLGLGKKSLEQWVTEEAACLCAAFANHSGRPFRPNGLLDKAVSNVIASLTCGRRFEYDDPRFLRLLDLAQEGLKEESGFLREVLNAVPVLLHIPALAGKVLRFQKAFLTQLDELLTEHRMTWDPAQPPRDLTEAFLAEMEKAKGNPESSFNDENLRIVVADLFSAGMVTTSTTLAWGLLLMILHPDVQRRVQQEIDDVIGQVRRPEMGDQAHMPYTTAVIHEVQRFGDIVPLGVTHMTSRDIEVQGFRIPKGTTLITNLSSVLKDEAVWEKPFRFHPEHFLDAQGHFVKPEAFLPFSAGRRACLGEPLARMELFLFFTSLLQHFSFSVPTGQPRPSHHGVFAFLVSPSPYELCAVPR

For the molecule `COc1ccc(C)cc1Nc1n[n+](-c2ccccc2)c(-c2cc([N+](=O)[O-])cc(OC)c2O)s1`, the EC50 in [1] was 58.4 µM (inactive); in test [2] it was 23.5 µM (inactive).
As to `CCCC(=O)NC(=S)Nc1cccc(Cl)c1N1CCCCC1`, the IC50 is 6.52 µM (active) at Phospholipase A2 and 9.11 µM (active) at Cysteine protease ATG4B.
For the molecule `Cc1ccc(C(=O)NN=C(S)Nc2cccc(Cl)c2Cl)cc1[N+](=O)[O-]`, the results for the IC50 at Phospholipase A2 and at Cysteine protease ATG4B were 13.3 µM (active) and 20.8 µM (inactive), respectively.
`FC(F)(F)c1cnc(NNC(=S)Nc2cccnc2)c(Cl)c1`: the IC50 in test [3] is 15.1 µM (active). The EC50 on Beta-galactosidase is > 40 µM (inactive).
On to `O=C(COC(=O)c1cnccn1)c1ccc(Cl)c([N+](=O)[O-])c1`, for which, in [3], the IC50 was 12.5 µM (active). Further, the EC50 at Beta-galactosidase is > 40 µM (inactive).
As for `Cc1cc(C)c(NC(=O)C2CCCN2C)c(C)c1` (stereo not given), the IC50 (in the test on HEK293; in test [4]) was > 67.3 µM (inactive) throughout. Further, the AC50 is 25.1 µM (inconclusive) on Cytochrome P450 3A4 and 28.2 µM (inconclusive) on Cytochrome P450 2D6.
As for `Cc1ccc(C(=O)COC(=O)CNC(=O)c2ccc(Br)o2)cc1[N+](=O)[O-]`, in test [3], the IC50 is given as > 40 µM (not active). The EC50 on Beta-galactosidase is > 40 µM (inactive).
Regarding `CCC(C)N(C(=O)COc1ccc(Br)cc1C=O)C1CCS(=O)(=O)C1` (stereo not given), the IC50 on Phospholipase A2 is 8.26 µM (active); at Cysteine protease ATG4B it was 10.1 µM (active).
`Cc1ccc(C)c(NC(=O)c2cc(-c3cc(C)ccc3O)[nH]n2)c1`: the IC50 is > 100 µM (inactive) in test [5], > 100 µM (inactive) in test [6], 5.17 µM (active) in [7] and 22.3 µM (active) on Caspase-3. Moreover, the AC50 in the test with HeLa is 41.9 µM (active).
As for `Cc1noc(C)c1S(=O)(=O)N1CCN(S(=O)(=O)c2ccccc2C#N)CC1`, the IC50 (with HEK293; in test [4]) was > 67.5 µM (inactive) each time.
